Key:
rats = conditions: icv administration (Thorsell et al. Neurosci. Lett. 2002); cited from earlier work
[1] = target: T1, recombinant human NPY Y2 receptors (Homo sapiens, UniProt P49146); test: Scintillation proximity [35S]GTPγS binding assay (inhibition of 0.5 nM NPY-stimulated [35S]GTPγS binding); type: biochemical; conditions: 10 μM compound, membranes from CHO-C4 cells expressing recombinant human NPY Y2 receptors; for inhibition at 10 µM: read-out: [%] inhibiton at 10 μM
T1 construct: expressed in transfected cells; host or cells: CHO-C4 cells (membrane preparation)
T1 sequence (P49146 1-381): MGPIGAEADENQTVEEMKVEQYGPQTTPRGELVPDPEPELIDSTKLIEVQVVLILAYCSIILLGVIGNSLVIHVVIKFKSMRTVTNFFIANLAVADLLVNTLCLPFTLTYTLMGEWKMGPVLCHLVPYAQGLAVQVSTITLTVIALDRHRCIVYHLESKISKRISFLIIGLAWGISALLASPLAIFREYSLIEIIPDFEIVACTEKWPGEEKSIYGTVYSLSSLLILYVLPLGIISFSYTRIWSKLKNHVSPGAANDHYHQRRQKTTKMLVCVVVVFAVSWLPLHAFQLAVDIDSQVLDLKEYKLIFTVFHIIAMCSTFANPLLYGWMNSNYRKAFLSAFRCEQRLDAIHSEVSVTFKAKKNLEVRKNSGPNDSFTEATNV
Procedure: Preparation of Membranes: CHO-C4 cells expressing recombinant human NPY Y2 receptors were used to prepare membranes for the GTPγS assay. Cells were grown to 80-95% confluency on 15-cm (225 cm^2) tissue culture plates. After aspiration of the culture medium, cells were washed twice with 18 ml ice-cold phosphate-buffered saline (PBS), scraped off and suspended in 3 ml ice-cold PBS in pre-cooled centrifuge tubes. The dishes were rinsed with 2 ml ice-old PBS per dish and the washings were combined with the PBS cell suspension from above. Cells pooled from 5-7 dishes were centrifuged for 5 min at 10,000 rpm (12,000 g) in a Sorvall RC5B centrifuge using an SS34 rotor at […]. The cell pellet was resuspended in 5 ml ice-cold buffer (20 mM HEPES, 10 mM EDTA; pH 7.4) by vortexing (2-5 sec), homogenized using a Polytron (step 4 for 20-30 sec), and ice-cold buffer added to 25 ml. The suspension was centrifuged again for 20 min at 18,000 rpm (39,000 g) at 4° C. and the pellet resuspended in 5 ml ice-cold buffer (20 mM HEPES, 0.1 mM EDTA; pH 7.4) by vortexing (2-5 sec), homogenized with a Polytron (step 4 for 10 sec), and ice-cold buffer added to 25 ml. The suspension was centrifuged a third time for 20 min at 18,000 rpm (39,000 g) at 4° C. The pellet was resuspend in 1 ml ice-cold buffer (20 mM Hepes, 0.1 mM EDTA; pH 7.4) by vortexing (5-8 sec). Two to five resuspended pellets were combined and homogenized using a Polytron (step 4 for 15-25 sec). A small aliquot (20-50 μl) was removed for protein determination by the Coomassie Plus Protein Assay Reagent (Pierce) using BSA as standard. The membrane suspension was aliquoted in precooled (on dry ice) Eppendorf tubes (0.25-1 ml/tube affording approximately 0.5-2 mg of membrane protein/tube). The pellets were frozen and stored at −80° C.
Scintillation proximity [^35S]GTPγS binding assay: Frozen membranes from CHO-C4 cells expressing recombinant human NPY Y2 receptors (2 mg for four 96-well plates) were thawed on ice. Thawed membranes were pipetted into 10 ml of assay buffer (20 mM HEPES, 10 mM MgCl2, 100 mM NaCl, pH 7.4) and homogenized briefly using a Polytron. The final assay mixture was prepared in 96-well microtiter plates (Isoplate Wallac, Perkin Elmer). The composition of the assay mixtures in a final volume of 250 μl per well was as follows: 20 mM HEPES, 10 mM MgCl2, 100 mM NaCl, pH 7.4, 30 μM GDP, 1 mg/ml BSA (added fresh), 5 μg membrane protein, 1.5 mg Wheatgerm agglutinin SPA beads (Amersham), 0.45 nM [^35S]GTPγS (Amersham, SJ1308, 1000 Ci/mmol, stabilized solution), and the test compounds (agonists and/or antagonists) at the appropriate concentrations. The samples were incubated at room temperature for 90 min by shaking, after which the SPA beads were sedimented by centrifugation in an Eppendorf 5804 centrifuge at 2700 rpm for 10 min at room temperature. After 60 min the plates were counted in a TopCount (Canberra). Basal [^35S]GTPγS binding was measured in the absence of agonist (NPY). Non-specific binding was measured in the presence of excess (10 μM) unlabelled GTPγS (Sigma). Nonspecific binding never exceeded 10% of basal binding and was thus not subtracted from the experimental data. Antagonists were tested for the inhibition of 0.5 nM NPY-stimulated [^35S]GTPγS binding. Antagonist inhibition curves were analyzed by non-linear regression using GraphPad Prism software (Version 4.0, GraphPad Software Inc., CA, USA).
Antagonistic activity of compounds of the present invention was examined by the Scintillation proximity [^35S]GTPγS binding assay as described above (inhibition of 0.5 nM NPY-stimulated [^35S]GTPγS binding). The table below represents percentages of inhibition at a concentration of 10 μM.

inhibition at 10 µM [1] [%]	SMILES	further results
	N=C(N)NCCC[C@H](NC(=O)CC1(CC(=O)N2CCN(C3c4ccccc4NC(=O)c4ccccc43)CC2)CCCC1)C(=O)NCCn1c(=O)n(-c2ccccc2)n(-c2ccccc2)c1=O (stereo partly shown) [BIIE0246]	ethanol self-administration (rats): dose dependently reduced ethanol self-administration
	COc1ccccc1CC(=O)Nc1ccc(C(=O)CN2C(=O)C(c3ccccc3)(c3ccccc3)N=C2C)cc1 [Compound 30, 2-(2-Methoxy-phenyl)-N-{4-[2-(2-methyl-5-oxo-4,4-phenyl-4,5-dihydro-imidazol-1yl)-acetyl]-phenyl}-acetamide]	[%] inhibiton at 10 μM [1]: 78%
60	CCC(CC)C(=O)Nc1ccc(C(=O)CN2C(=O)C(c3ccccc3)(c3ccccc3)N=C2C)c(F)c1 [Compound 33, 2-Ethyl-N-{3-fluoro-4-[2-(2-methyl-5-oxo-4,4-diphenyl-4,5-dihydro-imidazol-1-yl)-acetyl]-phenyl}-butyramide]	
65	CCC(CC)C(=O)Nc1ccc(C(=O)CN2C(=O)C(c3ccccc3)(c3ccccc3)N=C2C)cc1 [Compound 34, 2-Ethyl-N-{4-[2-(2-methyl-5-oxo-4,4-diphenyl-4,5-dihydro-imidazol-1-yl)-acetyl]-phenyl}-butyramide]	

Reference: US7786155B2, “Organic compounds” (Novartis AG, priority 2007, dated 2010)
